This is an account of results in patent US20060216693A1, “Method of screening compounds which inhibit the initiation of the retrotranscription of the rna of virus hiv-1 and means for implementing same” (priority 2003, published 2006).

Each structure is given as a SMILES string. Several values for one entry are separate records, joined by “and”; a condition that tells them apart may be missing. Identical values can stand only once.

Assay [1] has as its system HIV-1 reverse transcriptase. Conditions: 5 μM inhibitor, 5 μM each dNTP, 30 minute-reaction, 37° C.
Assay [2] has as its system HIV-1 reverse transcriptase. Kind of assay: Synthesis of product corresponding to reverse transcription initiation (addition of first 6 nucleotides to biotinylated tRNAHis primer), scintillation proximity assay. In kind it is biochemical. Conditions: calculated. How it is done: FIG. 7: (−) Synthesis of a Product Corresponding to Retrotranscription Initiation from Biotinylated vRNA complex [His-AC-GAC]/tRNA^His
The signal attenuation is detected with […] of AZTTP. The numbers in bold and italic on the top of histograms corresponds to the percent of residual signal compared to the control without inhibitor.
Reactions are stopped by adding EDTA 25 mM and extension product detection is performed as previously described.

In assay [3] the target is HIV-1 reverse transcriptase (Human immunodeficiency virus type 1 group M subtype B, UniProt P04585). Conditions: selectivity measured in initiation and elongation (Rigourd and al., 2000); cited from earlier work.

On to `Cc1cn([C@H]2C[C@H](N=[N+]=[N-])[C@@H](CO[P@](=O)(O)O[P@](=O)(O)OP(=O)(O)O)O2)c(=O)[nH]c1=O` [AZTTP], for which the “inhibition rate of (−) strand strong-stop DNA synthesis” value in assay [1] is recorded as “about 90%”. The Theoretical signal in assay [2] ([dTTP]/[AZTTP] = 2, selectivity (AZTTP/dTTP) = 0.6) is 60.7%; in assay [2] ([dTTP]/[AZTTP] = 2, selectivity (AZTTP/dTTP) = 0.7) it was 56.7%; in assay [2] ([dTTP]/[AZTTP] = 50, selectivity (AZTTP/dTTP) = 0.6), 97.7%; in assay [2] ([dTTP]/[AZTTP] = 50, selectivity (AZTTP/dTTP) = 0.7) it was 97.3%. In addition, in assay [3], the “AZTTP incorporation selectivity against dTTP” value is 0.6 and 0.7.
As to `Cc1cn([C@H]2C=C[C@@H](COP(=O)(O)OP(=O)(O)OP(=O)(O)O)O2)c(=O)[nH]c1=O` [d4TTP], in assay [1], the “inhibition rate of (−) strand strong-stop DNA synthesis” value is 80%.
